Data on 68 sequences can be found in the supplement of paper PMC11208160.

A short description of this data set: recombinant UMI read abundance after kanamycin selection (control-corrected) (log10(CPM+1)); higher = more efficient recombination; extreme values may be limits of the assay; sequences stand for … in AGTGCAGAGAAAATCGGCCAGTTTTCTCTGCCTGCAGTCCGCATGCCGTGGGACCCCTTGGGTTCTAACCTGTTGCCTAGATTTATGCAGCGGACTGCCTTTCTCCCAAAGTGATAAACCGG…AGGTTGGTTTCACT; site = the 11-nt donor. An outline of the steps:
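Each donor and donor-binding-loop pair was tracked by a 12-nt UMI on a plasmid carrying a promoterless kanamycin gene. With a second plasmid supplying a fixed target and T7-inducible IS621 bridge recombinase, the pool was plated in Escherichia coli on IPTG (0.07 mM) plus kanamycin or unselected. Sequencing of recombinant UMIs across the donor–target junction gave counts expressed as log10(CPM+1) after replicate averaging and control-derived scaling.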
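Further: IS621 bridge recombinase in Escherichia coli cells against a fixed T5 target plasmid.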

As for “GATTGGACATGGACCGGTTTTCCCGGTAATCCGTATTTGAC (site GATTGGACTGG)”, the “recombinant UMI read abundance (log10)” value stood at 0.

Regarding “GATTGGACATGGACCGGTTTTCCCGGTAATCCGTATTTGAC (site GATTGGACTGT)”, the “recombinant UMI read abundance (log10)” value is 0.659.

As to “GATTGGACATGGACCGGTTTTCCCGGTAATCCGTATTTGAC (site GATTGGACTTT)”, the “recombinant UMI read abundance (log10)” value is 0.0228.

As to “GATTGGACATGGACCGGTTTTCCCGGTAATCCGTATTTGAC (site GATTGGCCTGT)”, the “recombinant UMI read abundance (log10)” value came out at 0.

For the sequence “GATTGGACATGGACCGGTTTTCCCGGTAATCCGTATTTGAC (site GATTGGGCTGT)”, the “recombinant UMI read abundance (log10)” value worked out at 0.

As to “GATTGGACATGGACCGGTTTTCCCGGTAATCCGTATTTGAC (site GATTGGTCTGT)”, the “recombinant UMI read abundance (log10)” value came to 0.

On to “GATTGGACATGGACCGGTTTTCCCGGTAATCCGTATTTGAC (site GATTGTACTGT)”, for which the “recombinant UMI read abundance (log10)” value worked out at 0.

In the case of “GATTGGACATGGACCGGTTTTCCCGGTAATCCGTATTTGAC (site GATTTGACTGT)”, the “recombinant UMI read abundance (log10)” value stood at 0.

Consider “GATTGGACATGGACCGGTTTTCCCGGTAATCCGTATTTGAC (site GCTTGGACTGT)”, for which the “recombinant UMI read abundance (log10)” value worked out at 0.

For “GATTGGACATGGACCGGTTTTCCCGGTAATCCGTATTTGAC (site GGTTGGACTGT)”, the “recombinant UMI read abundance (log10)” value was 0.928.

In the case of “GATTGGACATGGACCGGTTTTCCCGGTAATCCGTATTTGAC (site GTTTGGACTGT)”, the “recombinant UMI read abundance (log10)” value was 0.

For the sequence “GATTGGACATGGACCGGTTTTCCCGGTAATCCGTATTTGAC (site TATTGGACTGT)”, the “recombinant UMI read abundance (log10)” value was 1.83.

In the case of “GATTGGACATGGACCGGTTTTCCCGGTAATCCGTATTTGAG (site GATTGGACTAT)”, the “recombinant UMI read abundance (log10)” value turned out to be 0.00853.

“GATTGGACATGGACCGGTTTTCCCGGTAATCCGTATTTGAG (site GATTGGACTCT)”: the “recombinant UMI read abundance (log10)” value was 1.33.

Consider “GATTGGACATGGACCGGTTTTCCCGGTAATCCGTATTTGAG (site GATTGGACTGT)”, for which the “recombinant UMI read abundance (log10)” value came out at 0.

For “GATTGGACATGGACCGGTTTTCCCGGTAATCCGTATTTGAG (site GATTGGACTTT)”, the “recombinant UMI read abundance (log10)” value turned out to be 0.0197.

“GATTTATCATGGACCGGTTTTCCCGGTAATCCGTATTTGAA (site GATTTATCTTT)”: the “recombinant UMI read abundance (log10)” value is 1.64.

As for “GATTTATCATGGACCGGTTTTCCCGGTAATCCGTATTTGGC (site GATTTATCTGC)”, the “recombinant UMI read abundance (log10)” value amounted to 1.38.

As for “GATTTGGCATGGACCGGTTTTCCCGGTAATCCGTATTTGTC (site GATTTGGCTGA)”, the “recombinant UMI read abundance (log10)” value amounted to 0.

Take “GCAACCTCATGGACCGGTTTTCCCGGTAATCCGTATTTGCC (site GCAACCTCTGG)”: the “recombinant UMI read abundance (log10)” value turned out to be 0.0535.

For “GCAACGCCATGGACCGGTTTTCCCGGTAATCCGTATTTGTA (site GCAACGCCTTA)”, the “recombinant UMI read abundance (log10)” value was 0.399.

Take “GCAACGCCATGGACCGGTTTTCCCGGTAATCCGTATTTGTA (site GCCACGCCTTA)”: the “recombinant UMI read abundance (log10)” value turned out to be 0.026.

As to “GCAACGCCATGGACCGGTTTTCCCGGTAATCCGTATTTGTA (site GCGACGCCTTA)”, the “recombinant UMI read abundance (log10)” value came out at 0.015.

On to “GCAACGCCATGGACCGGTTTTCCCGGTAATCCGTATTTGTA (site GCTACGCCTTA)”, for which the “recombinant UMI read abundance (log10)” value was 0.0211.

With “GCAAGAGCATGGACCGGTTTTCCCGGTAATCCGTATTTGGC (site GCAAGAGCTGC)”, the “recombinant UMI read abundance (log10)” value is 1.82.

For the sequence “GCAAGATCATGGACCGGTTTTCCCGGTAATCCGTATTTGGA (site GCAAGATCTTC)”, the “recombinant UMI read abundance (log10)” value is 1.69.

As to “GCAAGCTCATGGACCGGTTTTCCCGGTAATCCGTATTTGTG (site GCAAGCTCTCA)”, the “recombinant UMI read abundance (log10)” value was 2.55.

As for “GCACGACCATGGACCGGTTTTCCCGGTAATCCGTATTTGCA (site GCACGACCTTG)”, the “recombinant UMI read abundance (log10)” value came out at 0.

As for “GCACGTTCATGGACCGGTTTTCCCGGTAATCCGTATTTGGC (site GCACGTTCTGC)”, the “recombinant UMI read abundance (log10)” value stood at 2.74.

Take “GCACTTGCATGGACCGGTTTTCCCGGTAATCCGTATTTGGC (site GCACTTGCTGC)”: the “recombinant UMI read abundance (log10)” value is 2.1.

For the sequence “GCAGAATCATGGACCGGTTTTCCCGGTAATCCGTATTTGCA (site ACAGTATCTTG)”, the “recombinant UMI read abundance (log10)” value turned out to be 1.67.

Regarding “GCAGAATCATGGACCGGTTTTCCCGGTAATCCGTATTTGCA (site GCAGAATCTTG)”, the “recombinant UMI read abundance (log10)” value came out at 2.13.

“GCAGACACATGGACCGGTTTTCCCGGTAATCCGTATTTGAT (site GCAGACACTAT)”: the “recombinant UMI read abundance (log10)” value is 1.89.

“GCAGACCCATGGACCGGTTTTCCCGGTAATCCGTATTTGAT (site GCAGACCCTAT)”: the “recombinant UMI read abundance (log10)” value stood at 0.819.

Take “GCAGACCCATGGACCGGTTTTCCCGGTAATCCGTATTTGGG (site GCAGACCCTCC)”: the “recombinant UMI read abundance (log10)” value turned out to be 0.0178.

Turning to “GCAGAGACATGGACCGGTTTTCCCGGTAATCCGTATTTGCG (site ACAGAGACTCG)”, the “recombinant UMI read abundance (log10)” value is 2.51.

Regarding “GCAGAGACATGGACCGGTTTTCCCGGTAATCCGTATTTGCG (site CCAGAGACTCG)”, the “recombinant UMI read abundance (log10)” value came to 2.58.

With “GCAGAGACATGGACCGGTTTTCCCGGTAATCCGTATTTGCG (site GCAGAGACTCG)”, the “recombinant UMI read abundance (log10)” value came to 2.45.

“GCAGAGACATGGACCGGTTTTCCCGGTAATCCGTATTTGCG (site TCAGAGACTCG)”: the “recombinant UMI read abundance (log10)” value stood at 2.34.

Turning to “GCAGCCCCATGGACCGGTTTTCCCGGTAATCCGTATTTGCT (site GCAGCCCCTAG)”, the “recombinant UMI read abundance (log10)” value stood at 2.32.

For the sequence “GCAGCGGCATGGACCGGTTTTCCCGGTAATCCGTATTTGCC (site GCAGCGGCTGG)”, the “recombinant UMI read abundance (log10)” value came to 1.22.

For the sequence “GCAGGAGCATGGACCGGTTTTCCCGGTAATCCGTATTTGGA (site GCAGGAGCTTC)”, the “recombinant UMI read abundance (log10)” value worked out at 1.41.

Consider “GCAGGCACATGGACCGGTTTTCCCGGTAATCCGTATTTGCA (site GCAGGCACTTG)”, for which the “recombinant UMI read abundance (log10)” value came out at 2.39.

On to “GCAGGCGCATGGACCGGTTTTCCCGGTAATCCGTATTTGCG (site GCAGGCGCTCG)”, for which the “recombinant UMI read abundance (log10)” value was 2.03.

Regarding “GCAGGTGCATGGACCGGTTTTCCCGGTAATCCGTATTTGGC (site GCAGGTGCTGC)”, the “recombinant UMI read abundance (log10)” value is 1.53.

Take “GCAGTATCATGGACCGGTTTTCCCGGTAATCCGTATTTGCT (site ACAGTATCTTG)”: the “recombinant UMI read abundance (log10)” value is 0.

Consider “GCAGTATCATGGACCGGTTTTCCCGGTAATCCGTATTTGCT (site GCAGTATCTAG)”, for which the “recombinant UMI read abundance (log10)” value worked out at 2.7.

On to “GCAGTGTCATGGACCGGTTTTCCCGGTAATCCGTATTTGAT (site GCAGTGTCTAT)”, for which the “recombinant UMI read abundance (log10)” value is 2.82.

For “GCAGTTACATGGACCGGTTTTCCCGGTAATCCGTATTTGGA (site GCAGTTACTTC)”, the “recombinant UMI read abundance (log10)” value worked out at 1.1.

Consider “GCATAGACATGGACCGGTTTTCCCGGTAATCCGTATTTGCC (site GAATAGACTGG)”, for which the “recombinant UMI read abundance (log10)” value amounted to 0.0508.

Take “GCATAGACATGGACCGGTTTTCCCGGTAATCCGTATTTGCC (site GCATAGACTGG)”: the “recombinant UMI read abundance (log10)” value amounted to 1.74.

“GCATAGACATGGACCGGTTTTCCCGGTAATCCGTATTTGCC (site GGATAGACTGG)”: the “recombinant UMI read abundance (log10)” value was 0.

Consider “GCATAGACATGGACCGGTTTTCCCGGTAATCCGTATTTGCC (site GTATAGACTGG)”, for which the “recombinant UMI read abundance (log10)” value worked out at 0.

On to “GCATGGTCATGGACCGGTTTTCCCGGTAATCCGTATTTGGA (site GCATGGTCTTC)”, for which the “recombinant UMI read abundance (log10)” value was determined as 1.31.

Take “GCATGTGCATGGACCGGTTTTCCCGGTAATCCGTATTTGGT (site GCATGTGCTAC)”: the “recombinant UMI read abundance (log10)” value turned out to be 1.79.

As to “GCATTGACATGGACCGGTTTTCCCGGTAATCCGTATTTGTT (site GCATTGACTAA)”, the “recombinant UMI read abundance (log10)” value was determined as 1.4.

“GCCAACTCATGGACCGGTTTTCCCGGTAATCCGTATTTGTT (site GCCAACTCTAA)”: the “recombinant UMI read abundance (log10)” value amounted to 1.65.

Turning to “GCCAAGCCATGGACCGGTTTTCCCGGTAATCCGTATTTGCC (site GCCAAGCCTGG)”, the “recombinant UMI read abundance (log10)” value worked out at 0.

For the sequence “GCCAAGTCATGGACCGGTTTTCCCGGTAATCCGTATTTGGG (site GCCAAGTCTCC)”, the “recombinant UMI read abundance (log10)” value worked out at 0.538.

As for “GCCAATTCATGGACCGGTTTTCCCGGTAATCCGTATTTGCC (site ACCAATTCTGG)”, the “recombinant UMI read abundance (log10)” value was found to be 0.

As to “GCCAATTCATGGACCGGTTTTCCCGGTAATCCGTATTTGCC (site CCCAATTCTGG)”, the “recombinant UMI read abundance (log10)” value was 0.

Turning to “GCCAATTCATGGACCGGTTTTCCCGGTAATCCGTATTTGCC (site GCCAATTCTGG)”, the “recombinant UMI read abundance (log10)” value was 0.426.

On to “GCCAATTCATGGACCGGTTTTCCCGGTAATCCGTATTTGCC (site TCCAATTCTGG)”, for which the “recombinant UMI read abundance (log10)” value was determined as 0.

Consider “GCCACACCATGGACCGGTTTTCCCGGTAATCCGTATTTGTA (site GCCACACCTTA)”, for which the “recombinant UMI read abundance (log10)” value amounted to 0.0107.

On to “GCCACACCATGGACCGGTTTTCCCGGTAATCCGTATTTGTA (site GCCACCCCTTA)”, for which the “recombinant UMI read abundance (log10)” value was determined as 0.00331.

For “GCCACACCATGGACCGGTTTTCCCGGTAATCCGTATTTGTA (site GCCACGCCTTA)”, the “recombinant UMI read abundance (log10)” value turned out to be 0.00626.

Regarding “GCCACACCATGGACCGGTTTTCCCGGTAATCCGTATTTGTA (site GCCACTCCTTA)”, the “recombinant UMI read abundance (log10)” value was 0.0198.

Turning to “GCCACGGCATGGACCGGTTTTCCCGGTAATCCGTATTTGTA (site GCCACGACTTA)”, the “recombinant UMI read abundance (log10)” value is 1.24.
